Assays:
Experiment in all cases: drug sensitivity score (DSS3, normalised partial AUC of % inhibition dose-response) (DSS (score)); higher = more sensitive (stronger inhibition of viability); extreme values may be limits of the assay
[1] = tested on: FMOC02_1 (patient-derived low-grade serous ovarian cancer cells); conditions: 72 h; library: FO5A; assay format: 2D, 384-well, CellTiter-Glo
Outline: (§1)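 Early-passage (under 10) patient-derived ovarian cancer cells were dispensed onto 384-well flat clear-bottom plates pre-plated with compounds at five concentrations spanning a 10,000-fold range, then incubated 72 h at 37 °C, 5% CO2. Viability was read with CellTiter-Glo, and the data were processed in Breeze. The drug sensitivity score is a partial area under the percent-inhibition dose-response curve divided by the log of the upper asymptote, with higher values meaning greater sensitivity.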

[2] = tested on: FMOC02_2 (patient-derived low-grade serous ovarian cancer cells); conditions: 72 h; library: FO5A; assay format: 2D, 384-well, CellTiter-Glo
Outline: as §1

[3] = tested on: FMOC02_3 (patient-derived low-grade serous ovarian cancer cells); conditions: 72 h; library: FO5A; assay format: 2D, 384-well, CellTiter-Glo
Outline: as §1

[4] = tested on: FMOC03 (patient-derived mucinous ovarian cancer cells); conditions: 72 h; library: FO5A; assay format: 2D, 384-well, CellTiter-Glo
Outline: as §1

[5] = tested on: FMOC04 (patient-derived high-grade serous ovarian cancer cells); conditions: 72 h; library: FO5A; assay format: 2D, 384-well, CellTiter-Glo
Outline: as §1

[6] = tested on: FMOC06 (patient-derived mucinous ovarian cancer cells); conditions: 72 h; library: FO5A; assay format: 2D, 384-well, CellTiter-Glo
Outline: as §1

[7] = tested on: FMOC09 (patient-derived high-grade serous ovarian cancer cells); conditions: 72 h; library: FO5A; assay format: 2D, 384-well, CellTiter-Glo
Outline: as §1

[8] = tested on: FMOC11 (patient-derived high-grade serous ovarian cancer cells); conditions: 72 h; library: FO5A; assay format: 2D, 384-well, CellTiter-Glo
Outline: as §1

[9] = tested on: FMOC14 (patient-derived high-grade serous ovarian cancer cells); conditions: 72 h; library: FO5A; assay format: 2D, 384-well, CellTiter-Glo
Outline: as §1

[10] = tested on: FMOC17 (patient-derived low-grade serous ovarian cancer cells); conditions: 72 h; library: FO5A; assay format: 2D, 384-well, CellTiter-Glo
Outline: as §1

[11] = tested on: FMOC22 (patient-derived mucinous ovarian cancer cells); conditions: 72 h; library: FO5A; assay format: 2D, 384-well, CellTiter-Glo
Outline: as §1

[12] = tested on: FMOC24 (patient-derived high-grade serous ovarian cancer cells); conditions: 72 h; library: FO5A; assay format: 2D, 384-well, CellTiter-Glo
Outline: as §1

[13] = tested on: FMOC25_1 (patient-derived low-grade serous ovarian cancer cells); conditions: 72 h; library: FO4B; assay format: 2D, 384-well, CellTiter-Glo
Outline: as §1

[14] = tested on: FMOC25_2 (patient-derived low-grade serous ovarian cancer cells); conditions: 72 h; library: FO5A; assay format: 2D, 384-well, CellTiter-Glo
Outline: as §1

[15] = tested on: FMOC27 (patient-derived low-grade serous ovarian cancer cells); conditions: 72 h; library: FO5A; assay format: 2D, 384-well, CellTiter-Glo
Outline: as §1

[16] = tested on: FMOC28 (patient-derived low-grade serous ovarian cancer cells); conditions: 72 h; library: FO5A; assay format: 2D, 384-well, CellTiter-Glo
Outline: as §1

SMILES	drug sensitivity score [1]	drug sensitivity score [2]	drug sensitivity score [3]	drug sensitivity score [4]	drug sensitivity score [5]	drug sensitivity score [6]	drug sensitivity score [7]	drug sensitivity score [8]	drug sensitivity score [9]	drug sensitivity score [10]	drug sensitivity score [11]	drug sensitivity score [12]	drug sensitivity score [13]	drug sensitivity score [14]	drug sensitivity score [15]	drug sensitivity score [16]
CO[C@@]12[C@H](COC(N)=O)C3=C(C(=O)C(C)=C(N)C3=O)N1C[C@@H]1N[C@@H]12 [Mitomycin C]	0	0	1.9	0	0	0	2.7	1.6	0	0	0	0.45	3.6	3.7	0.1	0.8
Clc1ccc(C(c2ccccc2Cl)C(Cl)Cl)cc1 (centres undefined) [Mitotane]	0	0	0	0	0	0	0	0	0	0	0	0	0	0	0	0
CC1(C)CNc2cc(NC(=O)c3cccnc3NCc3ccncc3)ccc21 [Motesanib]	0	0.5	2.9	0	0	1.1	0	0.2	0	0	0	0.15	1	0.1	0.6	2.4
FC(F)(F)c1ccc(/C=C/c2nc(COc3ccc(CCCCn4ccnn4)cc3)co2)cc1 [Mubritinib]	0	0	0	3.9	0	0.6	0	0.6	0.7	0	3	0	0.1	1.1	1.7	0
COc1nc(N)nc2c1ncn2[C@@H]1O[C@H](CO)[C@@H](O)[C@@H]1O [Nelarabine]	0	0	0	0	0	1.7	0	0	0	0	0	1.75	0	0	0	0
Cc1cn(-c2cc(NC(=O)c3ccc(C)c(Nc4nccc(-c5cccnc5)n4)c3)cc(C(F)(F)F)c2)cn1 [Nilotinib]	3	1.3	0	3.5	0	3.4	0.7	4.6	0.9	2.4	1	3.7	3.4	1.5	2.3	5.6
CC1(C)NC(=O)N(c2ccc([N+](=O)[O-])c(C(F)(F)F)c2)C1=O [Nilutamide]	0	0	0	0	0	0	0	0	0	0.5	0	0.65	0	0	0.1	0
NC(=O)c1cccc2cn(-c3ccc([C@@H]4CCCNC4)cc3)nc12 [Niraparib]	4.2	2.6	6.6	0	0.55	1.5	1.6	1.4	0	0	1.9	5.55	1.5	4.8	3.2	5.4
CNC(=O)c1ccc2cc([C@@]3(O)CCn4cncc43)ccc2c1 [Orteronel]	0	0	0	0	0	0	0	0	0	0	0	0	0	1.4	0	0.2
C=CCc1cccc(/C=N/NC(=O)CN2CCN(Cc3ccccc3)CC2)c1O [PAC-1]	0	3.6	0	5.6	0	3.7	4.8	3.1	5	1.3	3.5	1.2	0.4	2.1	0	7.1
O=C(Nc1cccnc1)N1CCC(Cc2cccc(Oc3ccc(C(F)(F)F)cn3)c2)CC1 [PF-3845]	1.1	3.3	1.2	2.3	0	0.1	0	0	0	1.6	1.5	0.4	1.7	0	1.9	2.5
O=C(Nc1cc(Cl)cc2c1[nH]c1cnccc12)c1cccnc1 [PS-1145]	2.2	4.6	7.2	0.1	0	0.8	1.1	0.8	0	2.3	0	2.75	3.2	2.7	0.7	3
CC(=O)c1c(C)c2cnc(Nc3ccc(N4CCNCC4)cn3)nc2n(C2CCCC2)c1=O [Palbociclib]	3.8	4.9	6.2	2.7	0.65	2.5	0.5	1.4	1.6	0.7	0.5	2.95	2.5	5.2	1.1	3.9
COc1ccc(COc2cc3oc(=O)c4cc(C(C)O)ccc4c3cc2OC)cc1 (centres undefined) [Palomid-529]	0	2.2	0	0	0	0	0.4	0.4	0	0	0	0	0	0.1	0	1.4
Cc1ccc(Nc2nccc(N(C)c3ccc4c(C)n(C)nc4c3)n2)cc1S(N)(=O)=O [Pazopanib]	1.3	0.4	1.5	0	0	0	0	0	0	0	0	3.8	1.1	3	0.6	0
OC[C@H]1O[C@@H](n2cnc3c2N=CNC[C@H]3O)C[C@@H]1O [Pentostatin]	0	0	0	0	0	0	0	0	0	0	0	0	0	0	0	0
CCCCCCCCCCCCCCCCCCOP(=O)([O-])OC1CC[N+](C)(C)CC1 [Perifosine]	0	0	0	0	0	0.1	0	0	0	0	0	3.35	0	0.5	0	0
FC(F)(F)c1ccc(CNc2ccc(Cc3c[nH]c4ncc(Cl)cc34)cn2)cn1 [Pexidartinib]	3.9	2.5	3.1	0	0.1	0.9	4.1	2.6	0	1.4	0.3	1.3	1.6	0	0	0.1
CC[C@@H]1C(=O)OC[C@@H]1Cc1cncn1C [Pilocarpine]	0	0.3	0	0	0	0	0	0	0	0	0	2.65	0	0	0	0
CC(C)N(C[C@H]1O[C@@H](n2cnc3c(N)ncnc32)[C@H](O)[C@@H]1O)[C@H]1C[C@@H](CCc2nc3cc(C(C)(C)C)ccc3[nH]2)C1 [Pinometostat]	0	0	0	0	0	0	0	0	0	0	0	0	0	0.2	0	2.1
NCCNc1ccc(NCCN)c2c1C(=O)c1ccncc1C2=O [Pixantrone]	0	0	1.5	0	0.2	0	0	1.7	0	0.9	0	0	0.7	1.8	0	1.6
c1cc(CN2CCCNCCNCCCNCC2)ccc1CN1CCCNCCNCCCNCC1 [Plerixafor]	0	0	0	0	0	0	0	0	0	0	0	0	0	0	0	0
Nc1cccc2c1C(=O)N(C1CCC(=O)NC1=O)C2=O (centres undefined) [Pomalidomide]	0	0	0	0	0	0	0	0	0	0	0	0	0	0	0	0
CC[C@H](C)C(=O)O[C@H]1C[C@H](O)C=C2C=C[C@H](C)[C@H](CC[C@@H](O)C[C@@H](O)CC(=O)O)[C@H]21 [Pravastatin]	0	0	0	0	0	0.8	0	0	0	0	0	0.35	0	0	0	0

From the supplement of paper PMC9938120
